Reference: patent US20100041089A1, “IMPROVED METHOD FOR DETECTING CHEMICAL […]” (priority 2006, published 2010)

Tested on: yeast genes (expressed mRNA)
Test: DNA chip measurement of expressed mRNA of yeast genes after culture with a toxic chemical substance
Format: cell-based, Saccharomyces cerevisiae S288C
How it was run: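 Fluorescence ratio, treated over untreated, read by chip scanner; ratio of two or more counted significant. Cells: S288C yeast, YPD, 25° C, chemical added at log phase for 2 h at growth-inhibiting, sublethal level. Cy3/Cy5-labeled cDNA from oligo-dT-purified mRNA.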

SMILES: S=C([S-])NCCNC(=S)[S-].[Zn+2] [(11), Zinc N,N′-ethylenebis(dithiocarbamate)]
- The level of expressed mRNA in the presence of chemical substance/The level of expressed mRNA in the absence of chemical substance (yeast gene YAL053W, cultured two hours with substance): 2.3
- The level of expressed mRNA in the presence of chemical substance/The level of expressed mRNA in the absence of chemical substance (yeast gene YAR028W, cultured two hours with substance): 0.9
- The level of expressed mRNA in the presence of chemical substance/The level of expressed mRNA in the absence of chemical substance (yeast gene YBL048W, cultured two hours with substance): 2.0
- The level of expressed mRNA in the presence of chemical substance/The level of expressed mRNA in the absence of chemical substance (yeast gene YBL107C, cultured two hours with substance): 2.9
- The level of expressed mRNA in the presence of chemical substance/The level of expressed mRNA in the absence of chemical substance (yeast gene YBR008C (detoxification protein gene)): 9.4
- The level of expressed mRNA in the presence of chemical substance/The level of expressed mRNA in the absence of chemical substance (yeast gene YBR072W (stress protein genes)): 6.3
- The level of expressed mRNA in the presence of chemical substance/The level of expressed mRNA in the absence of chemical substance (yeast gene YBR096W, cultured two hours with the chemical substance): 1.2
- The level of expressed mRNA in the presence of chemical substance/The level of expressed mRNA in the absence of chemical substance (yeast gene YBR269C, cultured two hours with substance): 1.2
- The level of expressed mRNA in the presence of chemical substance/The level of expressed mRNA in the absence of chemical substance (yeast gene YCR102C, cultured two hours with substance): 13.5
- The level of expressed mRNA in the presence of chemical substance/The level of expressed mRNA in the absence of chemical substance (yeast gene YDL023C, cultured two hours with the chemical substance): 3.5
- The level of expressed mRNA in the presence of chemical substance/The level of expressed mRNA in the absence of chemical substance (yeast gene YDL072C, cultured two hours with substance): 1.4
- The level of expressed mRNA in the presence of chemical substance/The level of expressed mRNA in the absence of chemical substance (yeast gene YDL169C, cultured two hours with substance): 1.2
- The level of expressed mRNA in the presence of chemical substance/The level of expressed mRNA in the absence of chemical substance (yeast gene YDL204W, cultured two hours with substance): 3.2
- The level of expressed mRNA in the presence of chemical substance/The level of expressed mRNA in the absence of chemical substance (yeast gene YDL218W, cultured two hours with substance): 5.7
- The level of expressed mRNA in the presence of chemical substance/The level of expressed mRNA in the absence of chemical substance (yeast gene YDL222C, cultured two hours with substance): 2.6
- The level of expressed mRNA in the presence of chemical substance/The level of expressed mRNA in the absence of chemical substance (yeast gene YDR031W, cultured two hours with substance): 1.2
- The level of expressed mRNA in the presence of chemical substance/The level of expressed mRNA in the absence of chemical substance (yeast gene YDR070C, cultured two hours with substance): 4.1
- The level of expressed mRNA in the presence of chemical substance/The level of expressed mRNA in the absence of chemical substance (yeast gene YDR077W (stress protein genes)): 6.8
- The level of expressed mRNA in the presence of chemical substance/The level of expressed mRNA in the absence of chemical substance (yeast gene YDR330W, cultured two hours with substance): 0.9
- The level of expressed mRNA in the presence of chemical substance/The level of expressed mRNA in the absence of chemical substance (yeast gene YDR391C, cultured two hours with substance): 1.9
- The level of expressed mRNA in the presence of chemical substance/The level of expressed mRNA in the absence of chemical substance (yeast gene YDR411C, cultured two hours with substance): 1.3
- The level of expressed mRNA in the presence of chemical substance/The level of expressed mRNA in the absence of chemical substance (yeast gene YDR486C, cultured two hours with substance): 1.4
- The level of expressed mRNA in the presence of chemical substance/The level of expressed mRNA in the absence of chemical substance (yeast gene YDR511W, cultured two hours with substance): 1.2
- The level of expressed mRNA in the presence of chemical substance/The level of expressed mRNA in the absence of chemical substance (yeast gene YDR533C, cultured two hours with substance): 7.7
- The level of expressed mRNA in the presence of chemical substance/The level of expressed mRNA in the absence of chemical substance (yeast gene YDR545W, cultured two hours with substance): 0.7
- The level of expressed mRNA in the presence of chemical substance/The level of expressed mRNA in the absence of chemical substance (yeast gene YEL001C, cultured two hours with substance): 1.2
- The level of expressed mRNA in the presence of chemical substance/The level of expressed mRNA in the absence of chemical substance (yeast gene YEL033W, cultured two hours with the chemical substance): 1.2
- The level of expressed mRNA in the presence of chemical substance/The level of expressed mRNA in the absence of chemical substance (yeast gene YER004W, cultured two hours with substance): 2.2
- The level of expressed mRNA in the presence of chemical substance/The level of expressed mRNA in the absence of chemical substance (yeast gene YER035W, cultured two hours with substance): 1.4
- The level of expressed mRNA in the presence of chemical substance/The level of expressed mRNA in the absence of chemical substance (yeast gene YER038C, cultured two hours with substance): 0.6
- The level of expressed mRNA in the presence of chemical substance/The level of expressed mRNA in the absence of chemical substance (yeast gene YER079W, cultured two hours with substance): 2.1
- The level of expressed mRNA in the presence of chemical substance/The level of expressed mRNA in the absence of chemical substance (yeast gene YER106W, cultured two hours with substance): 1.0
- The level of expressed mRNA in the presence of chemical substance/The level of expressed mRNA in the absence of chemical substance (yeast gene YER158C, cultured two hours with substance): 2.3
- The level of expressed mRNA in the presence of chemical substance/The level of expressed mRNA in the absence of chemical substance (yeast gene YER163C, cultured two hours with substance): 1.6
- The level of expressed mRNA in the presence of chemical substance/The level of expressed mRNA in the absence of chemical substance (yeast gene YER175C, cultured two hours with substance): 1.1
- The level of expressed mRNA in the presence of chemical substance/The level of expressed mRNA in the absence of chemical substance (yeast gene YFL006W, cultured two hours with substance): 1.2
- The level of expressed mRNA in the presence of chemical substance/The level of expressed mRNA in the absence of chemical substance (yeast gene YFL010C, cultured two hours with substance): 1.4
- The level of expressed mRNA in the presence of chemical substance/The level of expressed mRNA in the absence of chemical substance (yeast gene YFL024C, cultured two hours with substance): 0.6
- The level of expressed mRNA in the presence of chemical substance/The level of expressed mRNA in the absence of chemical substance (yeast gene YFL032W, cultured two hours with substance): 1.1
- The level of expressed mRNA in the presence of chemical substance/The level of expressed mRNA in the absence of chemical substance (yeast gene YFR015C, cultured for two hours with substance): 3.9
- The level of expressed mRNA in the presence of chemical substance/The level of expressed mRNA in the absence of chemical substance (yeast gene YGL037C, cultured two hours with substance): 3.9
- The level of expressed mRNA in the presence of chemical substance/The level of expressed mRNA in the absence of chemical substance (yeast gene YGL047W, cultured two hours with substance): 1.9
- The level of expressed mRNA in the presence of chemical substance/The level of expressed mRNA in the absence of chemical substance (yeast gene YGL053W, cultured two hours with substance): 1.3
- The level of expressed mRNA in the presence of chemical substance/The level of expressed mRNA in the absence of chemical substance (yeast gene YGL121C, cultured two hours with substance): 6.1
- The level of expressed mRNA in the presence of chemical substance/The level of expressed mRNA in the absence of chemical substance (yeast gene YGL136C, cultured two hours with substance): 1.4
- The level of expressed mRNA in the presence of chemical substance/The level of expressed mRNA in the absence of chemical substance (yeast gene YGR101W, cultured two hours with substance): 2.0
- The level of expressed mRNA in the presence of chemical substance/The level of expressed mRNA in the absence of chemical substance (yeast gene YGR110W, cultured two hours with substance): 0.5
- The level of expressed mRNA in the presence of chemical substance/The level of expressed mRNA in the absence of chemical substance (yeast gene YGR130C, cultured two hours with substance): 0.8
- The level of expressed mRNA in the presence of chemical substance/The level of expressed mRNA in the absence of chemical substance (yeast gene YGR146C, cultured two hours with substance): 0.9
- The level of expressed mRNA in the presence of chemical substance/The level of expressed mRNA in the absence of chemical substance (yeast gene YGR154C, cultured two hours with substance): 1.5
- The level of expressed mRNA in the presence of chemical substance/The level of expressed mRNA in the absence of chemical substance (yeast gene YGR221C, cultured two hours with substance): 0.5
- The level of expressed mRNA in the presence of chemical substance/The level of expressed mRNA in the absence of chemical substance (yeast gene YHR029C, cultured two hours with substance): 3.8
- The level of expressed mRNA in the presence of chemical substance/The level of expressed mRNA in the absence of chemical substance (yeast gene YHR138C, cultured two hours with substance): 1.6
- The level of expressed mRNA in the presence of chemical substance/The level of expressed mRNA in the absence of chemical substance (yeast gene YHR199C, cultured two hours with substance): 1.9
- The level of expressed mRNA in the presence of chemical substance/The level of expressed mRNA in the absence of chemical substance (yeast gene YHR209W, cultured two hours with substance): 3.3
- The level of expressed mRNA in the presence of chemical substance/The level of expressed mRNA in the absence of chemical substance (yeast gene YIL023C, cultured two hours with substance): 1.1
- The level of expressed mRNA in the presence of chemical substance/The level of expressed mRNA in the absence of chemical substance (yeast gene YIL024C, cultured two hours with substance): 0.6
- The level of expressed mRNA in the presence of chemical substance/The level of expressed mRNA in the absence of chemical substance (yeast gene YIL041W, cultured two hours with substance): 1.4
- The level of expressed mRNA in the presence of chemical substance/The level of expressed mRNA in the absence of chemical substance (yeast gene YIL087C, cultured two hours with substance): 2.8
- The level of expressed mRNA in the presence of chemical substance/The level of expressed mRNA in the absence of chemical substance (yeast gene YIL117C, cultured two hours with substance): 1.8
- The level of expressed mRNA in the presence of chemical substance/The level of expressed mRNA in the absence of chemical substance (yeast gene YIL136W, mitochondria-located protein gene): 4.8
- The level of expressed mRNA in the presence of chemical substance/The level of expressed mRNA in the absence of chemical substance (yeast gene YIR024C): 6.3
- The level of expressed mRNA in the presence of chemical substance/The level of expressed mRNA in the absence of chemical substance (yeast gene YJL020C, cultured two hours with substance): 0.6
- The level of expressed mRNA in the presence of chemical substance/The level of expressed mRNA in the absence of chemical substance (yeast gene YJL057C, cultured two hours with substance): 2.0
- The level of expressed mRNA in the presence of chemical substance/The level of expressed mRNA in the absence of chemical substance (yeast gene YJL066C, cultured two hours with substance): 0.8
- The level of expressed mRNA in the presence of chemical substance/The level of expressed mRNA in the absence of chemical substance (yeast gene YJL082W, cultured two hours with substance): 1.0
- The level of expressed mRNA in the presence of chemical substance/The level of expressed mRNA in the absence of chemical substance (yeast gene YJL108C, cultured two hours with substance): 1.0
- The level of expressed mRNA in the presence of chemical substance/The level of expressed mRNA in the absence of chemical substance (yeast gene YJL144W, cultured two hours with substance): 3.0
- The level of expressed mRNA in the presence of chemical substance/The level of expressed mRNA in the absence of chemical substance (yeast gene YJL149W, cultured two hours with substance): 1.5
- The level of expressed mRNA in the presence of chemical substance/The level of expressed mRNA in the absence of chemical substance (yeast gene YJL151C, cultured two hours with substance): 1.0
- The level of expressed mRNA in the presence of chemical substance/The level of expressed mRNA in the absence of chemical substance (yeast gene YJL152W, cultured two hours with substance): 1.0
- The level of expressed mRNA in the presence of chemical substance/The level of expressed mRNA in the absence of chemical substance (yeast gene YJL161W, cultured two hours with substance): 3.7
- The level of expressed mRNA in the presence of chemical substance/The level of expressed mRNA in the absence of chemical substance (yeast gene YJL171C, cultured two hours with substance): 2.2
- The level of expressed mRNA in the presence of chemical substance/The level of expressed mRNA in the absence of chemical substance (yeast gene YJL186W, cultured two hours with substance): 0.6
- The level of expressed mRNA in the presence of chemical substance/The level of expressed mRNA in the absence of chemical substance (yeast gene YJR008W, cultured two hours with substance): 1.4
- The level of expressed mRNA in the presence of chemical substance/The level of expressed mRNA in the absence of chemical substance (yeast gene YJR054W, cultured two hours with substance): 0.7
- The level of expressed mRNA in the presence of chemical substance/The level of expressed mRNA in the absence of chemical substance (yeast gene YJR085C, cultured two hours with substance): 2.9
- The level of expressed mRNA in the presence of chemical substance/The level of expressed mRNA in the absence of chemical substance (yeast gene YKL034W, cultured two hours with substance): 1.2
- The level of expressed mRNA in the presence of chemical substance/The level of expressed mRNA in the absence of chemical substance (yeast gene YKL070W): 10.4
- The level of expressed mRNA in the presence of chemical substance/The level of expressed mRNA in the absence of chemical substance (yeast gene YKL071W, cultured two hours with substance): 40.3
